Experimental data reported in PMC6225212, “Synthesis and Pharmacological Evaluation of Novel Silodosin-Based Arylsulfonamide Derivatives as α1A/α1D-Adrenergic Receptor Antagonist with Potential Uroselective Profile” (Molecules : A Journal of Synthetic Chemistry and Natural …, 2018).
Like-named read-outs stand apart in the source and are kept apart here.

Key:
α2-ARs [1] = test: Radioligand binding, displacement of [3H]-Clonidine from α2-ARs on rat cerebral cortex; settings: ± SEM, two independent experiments
Procedure: (§1) The pharmacological profile of the new compounds was assessed in radioligand-binding assays as the ability to displace [^3H]-Prazosin or [^3H]-Clonidine from α1- and α2-ARs, respectively, on rat cerebral cortex. The inhibition constants (Ki) were calculated from the Cheng-Prusoff equation [24].
(§2) The affinity of the obtained compounds was evaluated by radioligand-binding assays (the ability to displace [^3H]-Prazosin and [^3H]-Clonidine from α1- and α2-ARs, respectively) on rat cerebral cortex. The brains are homogenized in 20 volumes of an ice-cold 50 mM Tris-HCl buffer (pH 7.6) and is centrifuged (MPW Med. Instruments, Warsaw, Poland) at 20,000 g for 20 min (0–4 °C). The cell pellet is resuspended in the Tris-HCl buffer and centrifuged again. Radioligand-binding assays are performed in plates (MultiScreen/Millipore, Burlington, MA, USA). The final incubation mixture (final volume 300 µL) consisted of 240 µL of the membrane suspension, 30 µL of [^3H]-Prazosin (0.2 nM) or [^3H]-Clonidine (2 nM) solution, and 30 µL of the buffer containing seven to eight concentrations (10^−11 to 10^−4 M) of the tested compounds. For measuring the unspecific binding, phentolamine, 10 µM (in the case of [^3H]-Prazosin) and clonidine, and 10 µM (in the case of [^3H]-Clonidine), were applied. The incubation was terminated by rapid filtration over glass fiber filters (Whatman GF/C, Sigma-Aldrich) using a vacuum manifold (Millipore). The filters were then washed twice with the assay buffer and placed in scintillation vials with a liquid-scintillation cocktail. Radioactivity was measured in a WALLAC 1409 DSA liquid-scintillation counter (BioSurplus, San Diego, CA, USA). All the assays were made in duplicate.

α1-ARs [2] = test: Radioligand binding, displacement of [3H]-Prazosin from α1-ARs on rat cerebral cortex; settings: for Sα2/α1 (ratio of affinity for α2- and α1-ARs): Ki α2 / Ki α1; for Ki: [3H]-Prazosin, rat cerebral cortex, ± SEM, two independent experiments
Procedure: as §1, §2

α1A-ARs = target: T1, α1A-ARs (Homo sapiens, UniProt P35348); test: Intrinsic activity at α1A-ARs, β-lactamase reporter gene, FRET substrate; type: cell-based; design: key to α1A Profile: ANT—antagonist; AGO—agonist; settings: for α1A Profile: functional profile; for IC50: antagonist mode, three independent experiments
T1 sequence (P35348 1-466): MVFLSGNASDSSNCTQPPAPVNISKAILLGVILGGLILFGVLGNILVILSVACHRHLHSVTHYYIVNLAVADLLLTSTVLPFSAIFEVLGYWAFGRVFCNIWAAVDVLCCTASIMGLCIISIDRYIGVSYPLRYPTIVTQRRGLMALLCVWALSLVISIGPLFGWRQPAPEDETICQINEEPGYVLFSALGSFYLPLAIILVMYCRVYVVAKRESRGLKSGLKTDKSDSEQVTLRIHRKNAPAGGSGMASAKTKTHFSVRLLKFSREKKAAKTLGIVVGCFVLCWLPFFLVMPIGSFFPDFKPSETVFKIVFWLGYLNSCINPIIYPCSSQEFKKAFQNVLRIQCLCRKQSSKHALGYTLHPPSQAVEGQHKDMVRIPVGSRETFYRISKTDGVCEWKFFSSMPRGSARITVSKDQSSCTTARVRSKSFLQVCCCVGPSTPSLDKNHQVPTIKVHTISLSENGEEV
Procedure: The intrinsic activity at α1A-ARs of the selected compounds was assessed by fluorescence detection (Invitrogen, Thermo Fisher Scientific, Carlsbad, CA, USA) of β-lactamase reporter genes using a FRET-enabled substrate. […] Intrinsic activity assay was performed according to the manufacturer of the assay kit (Invitrogen, Thermo Fisher Scientific corporation, Carlsbad, CA, USA). The cells were harvested and suspended in Assay Medium to a density of 312,500 cells/mL. Of the cell suspension, 32 µL per well was added to the Test Compound wells, the Unstimulated Control wells, and Stimulated Control wells and incubated per 16–24 h. […] Then, both the agonist and the antagonist plate were incubated in a humidified 37 °C/5% CO2 incubator for 5 h. After the incubation 8 µL of LiveBLAzer™-FRET B/G Substrate Mixture (CCF4-AM, Thermo Fisher Scientific corporation) was loaded cells in the absence of direct strong lighting, covered, and incubated at room temperature for 2 h.

α1B-ARs = target: T2, α1B-ARs (Homo sapiens, UniProt P35368); test: Intrinsic activity at α1B-ARs, aequorin calcium mobilization luminescence; type: cell-based; design: key to α1B Profile: ANT—antagonist; AGO—agonist; settings: for α1B Profile: functional profile; for IC50: antagonist mode, three independent experiments
T2 sequence (P35368 1-520): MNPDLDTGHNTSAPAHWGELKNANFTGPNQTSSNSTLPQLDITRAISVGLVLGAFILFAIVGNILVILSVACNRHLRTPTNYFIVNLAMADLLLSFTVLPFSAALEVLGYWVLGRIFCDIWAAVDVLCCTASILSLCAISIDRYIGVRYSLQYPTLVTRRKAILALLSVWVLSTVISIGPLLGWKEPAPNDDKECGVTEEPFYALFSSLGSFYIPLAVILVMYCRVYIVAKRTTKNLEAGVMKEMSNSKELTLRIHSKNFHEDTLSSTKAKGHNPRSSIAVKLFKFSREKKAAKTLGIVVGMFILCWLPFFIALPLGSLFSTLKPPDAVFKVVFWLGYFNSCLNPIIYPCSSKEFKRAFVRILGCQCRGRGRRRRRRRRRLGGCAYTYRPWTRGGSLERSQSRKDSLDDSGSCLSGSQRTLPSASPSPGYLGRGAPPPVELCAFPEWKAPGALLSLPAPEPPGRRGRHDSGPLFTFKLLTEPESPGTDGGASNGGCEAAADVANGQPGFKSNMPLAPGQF
Procedure: (§3) The intrinsic activity at α1A-ARs of the selected compounds was assessed by fluorescence detection (Invitrogen, Thermo Fisher Scientific, Carlsbad, CA, USA) of β-lactamase reporter genes using a FRET-enabled substrate. The intrinsic activity at α1B-ARs and α1D-ARs was determined by luminescence detection (PerkinElmer, Zaventem, Belgium) of calcium mobilization using the recombinant-expressed jellyfish photoprotein (Aequorin).
(§4) Intrinsic activity assay to α1B- and α1D-ARs was performed according to the manufacturer of the ready-to-use cells with stable expression of the α1B-adrenoreceptors and α1D-adrenoreceptors, respectively (PerkinElmer, Zaventem, Belgium). For measurement, cells (frozen, ready to use) were thawed and resuspended in 10 mL of assay buffer containing 5 µM coelenterazine h. This cells suspension was put in a 10 mL Falcon tube, fixed onto a rotating heel, and incubated for overnight at rt in the dark (8 rpm; 45° angle). Cells were diluted with Assay Buffer to 5000 cells/20 µL. Agonistic ligands 2 × (50 µL/well), diluted in Assay Buffer, were prepared in ½ white polystyrene area plates, and the cell suspension was dispensed in 50 µL volume on the ligands using the injector. The light emitted was recorded for 20 s. Cells with antagonist were incubated for 15 min at room temperature. Thereafter, 50 µL of agonist (3 × EC80 final concentration) was injected into the mix of cells and antagonist and the light emitted was recorded for 20 s.

α1D-ARs = target: T3, α1D-ARs (Homo sapiens, UniProt P25100); test: Intrinsic activity at α1D-ARs, aequorin calcium mobilization luminescence; type: cell-based; design: key to α1D Profile: ANT—antagonist; AGO—agonist; settings: for IC50: antagonist mode; for α1D Profile: functional profile
T3 sequence (P25100 1-572): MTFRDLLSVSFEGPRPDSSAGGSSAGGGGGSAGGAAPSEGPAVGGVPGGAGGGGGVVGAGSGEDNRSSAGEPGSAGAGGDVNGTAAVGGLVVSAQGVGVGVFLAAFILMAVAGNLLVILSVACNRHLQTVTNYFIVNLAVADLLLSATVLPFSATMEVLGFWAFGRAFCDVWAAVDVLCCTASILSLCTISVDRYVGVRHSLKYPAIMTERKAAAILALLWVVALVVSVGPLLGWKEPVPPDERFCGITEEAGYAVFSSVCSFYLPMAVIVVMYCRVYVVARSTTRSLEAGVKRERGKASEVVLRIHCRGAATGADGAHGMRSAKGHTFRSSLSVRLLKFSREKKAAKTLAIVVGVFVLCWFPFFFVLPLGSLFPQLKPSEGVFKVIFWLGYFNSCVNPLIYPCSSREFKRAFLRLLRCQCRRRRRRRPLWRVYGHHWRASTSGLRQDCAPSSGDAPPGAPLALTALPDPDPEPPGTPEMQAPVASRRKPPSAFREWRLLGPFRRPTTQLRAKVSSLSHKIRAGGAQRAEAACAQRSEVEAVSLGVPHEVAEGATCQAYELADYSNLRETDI
Procedure: as §3, §4

α1-ARs [3] = tested on: α1-ARs; design: method as in PMID 27658792; settings: cited from earlier work
α2-ARs [4] = target: α2-ARs; design: method as in PMID 27658792; settings: [3H]-Clonidine, rat cerebral cortex; ± SEM; cited from earlier work
[5] = antagonist, as worded in abstract and text, read-out: EC50(α1D)

Row | Compound | Ki (α2-ARs [1]) | Sα2/α1 (ratio of affinity for α2- and α1-ARs) (α1-ARs [2]) | Ki (α1-ARs [2]) | α1A Profile (α1A-ARs) | α1B Profile (α1B-ARs) | α1D Profile (α1D-ARs) | further results
1 | COc1ccc(Cl)cc1S(=O)(=O)NCC1CCN(CCOc2ccccc2OCC(F)(F)F)CC1 [Compound 11, 5-Chloro-2-methoxy-N-[(1-{2-[(2,2,2-trifluoroethoxy)phenoxy]ethyl}piperidin-4-yl)methyl]benzenesulfonamide] | 1090 ± 62 nM | 12 | 95 ± 3 nM |  |  |  | 
2 | O=S(=O)(N[C@H]1CCN(CCOc2ccccc2OCC(F)(F)F)C1)c1cc(Cl)ccc1F [Compound 16, (S)-5-Chloro-2-fluoro-N-(1-{2-[(2,2,2-trifluoroethoxy)phenoxy]ethyl}pyrrolidin-3-yl)benzenesulfonamide] | 1470 ± 80 nM | 13 | 117 ± 10 nM |  |  |  | 
3 | O=S(=O)(N[C@H]1CCN(CCOc2ccccc2OCC(F)(F)F)C1)c1ccc(F)cc1 [Compound 14, (S)-4-Fluoro-N-(1-{2-[(2,2,2-trifluoroethoxy)phenoxy]ethyl}pyrrolidin-3-yl)benzenesulfonamide] | > 10000 nM | >70 | 134 ± 16 nM |  |  |  | 
4 | CC(C)Oc1ccccc1OCCN1CC[C@H](NS(=O)(=O)c2cc(Cl)ccc2F)C1 [II] |  |  |  |  |  |  | Sα2/α1 (ratio of affinity for α2- and α1-ARs) (α1-ARs [3]; Ki α2 / Ki α1): >41; Ki (α1-ARs [3]; [3H]-Prazosin, rat cerebral cortex, ± SEM): 242 ± 16 nM; Ki (α2-ARs [4]): > 10000 nM
5 | COc1ccc(S(=O)(=O)NCC2CCN(CCOc3ccccc3OCC(F)(F)F)CC2)cc1OC [Compound 12, 3,4-Dimethoxy-N-[(1-{2-[(2,2,2-trifluoroethoxy)phenoxy]ethyl}piperidin-4-yl)methyl]benzenesulfonamide] | 524 ± 31 nM | 27 | 19 ± 3 nM | ANT | ANT | ANT | IC50 (α1A-ARs): 15 nM; IC50 (α1B-ARs): 0.02 nM; IC50 (α1D-ARs; three independent experiments): 2.6 nM; EC50 (α1D-ARs; [5]): 1.1 to 2.7 nM
6 | O=S(=O)(N[C@@H]1CCN(CCOc2ccccc2OCC(F)(F)F)C1)c1cc(Cl)ccc1F [Compound 15, (R)-5-Chloro-2-fluoro-N-(1-{2-[(2,2,2-trifluoroethoxy)phenoxy]ethyl}pyrrolidin-3-yl)benzenesulfonamide] | 1190 ± 74 nM | 7 | 171 ± 4 nM |  |  |  | 
7 | O=S(=O)(N[C@@H]1CCN(CCOc2ccccc2OCC(F)(F)F)C1)c1ccc(F)cc1 [Compound 13, (R)-4-Fluoro-N-(1-{2-[(2,2,2-trifluoroethoxy)phenoxy]ethyl}pyrrolidin-3-yl)benzenesulfonamide] | 1690 ± 85 nM | 9 | 188 ± 3 nM |  |  |  | 
8 | O=S(=O)(NCC1CCN(CCOc2ccccc2OCC(F)(F)F)CC1)c1ccc(F)cc1 [Compound 8, 4-Fluoro-N-[(1-{2-[(2,2,2-trifluoroethoxy)phenoxy]ethyl}piperidin-4-yl)methyl]benzenesulfonamide] | 919 ± 25 nM | 46 | 20 ± 2 nM | ANT | ANT | ANT | IC50 (α1A-ARs): 3.8 nM; IC50 (α1B-ARs): 8.3 nM; IC50 (α1D-ARs; three independent experiments): 1.1 nM; EC50 (α1D-ARs; [5]): 1.1 to 2.7 nM

Second part, led by results:

Row | Ki (α2-ARs [1]) | Sα2/α1 (ratio of affinity for α2- and α1-ARs) (α1-ARs [2]) | Ki (α1-ARs [2]) | α1A Profile (α1A-ARs) | α1B Profile (α1B-ARs) | α1D Profile (α1D-ARs) | Compound | further results
9 |  |  |  | ANT | ANT | ANT | COc1cc2nc(N3CCN(C(=O)C4CCCO4)CC3)nc(N)c2cc1OC (stereo not shown) [terazosin, reference compound] | IC50 (α1D-ARs; three independent experiments): 0.2 nM
10 | 1140 ± 42 nM | 16 | 70 ± 1 nM |  |  |  | COc1ccc(S(=O)(=O)N[C@H]2CCN(CCOc3ccccc3OCC(F)(F)F)C2)cc1OC [Compound 18, (S)-3,4-Dimethoxy-N-(1-{2-[(2,2,2-trifluoroethoxy)phenoxy]ethyl}pyrrolidin-3-yl)benzenesulfonamide] | 
11 | 435 ± 21 nM | 4 | 105 ± 7 nM |  |  |  | COc1ccc(S(=O)(=O)N[C@@H]2CCN(CCOc3ccccc3OCC(F)(F)F)C2)cc1OC [Compound 17, (R)-3,4-Dimethoxy-N-(1-{2-[(2,2,2-trifluoroethoxy)phenoxy]ethyl}pyrrolidin-3-yl)benzenesulfonamide] | 
12 |  |  |  | AGO ^b | AGO | AGO | CNC[C@H](O)c1cccc(O)c1 [phenylephrine, reference compound] | EC50 (α1D-ARs; agonist mode, three independent experiments, read-out: α1D EC50): 12.1 nM
